From article PMC9959048, “Lipidation of Naturally Occurring α-Helical Antimicrobial Peptides as a Promising Strategy for Drug Design” (International Journal of Molecular Sciences, 2023)
In brackets after ≈: the same amount, converted by molar mass. Residues, ends and D or L forms follow the SMILES beside them. *: point of attachment. Palmitoyl = CCCCCCCCCCCCCCCC(=O)*; Decanoyl = CCCCCCCCCC(=O)*

Columns and labels:
E. coli PCM2057 = format: cell-based, Escherichia coli; details: Mueller–Hinton broth, inoculum 5 × 10^5 CFU/mL, 24 h, 37 °C, absorbance 600 nm, triplicate
Procedure: (§1) The evaluation of the antimicrobial activity of the synthesized lipopeptides was performed against the following reference bacterial and fungal strains: Staphylococcus aureus PCM 1650, Staphylococcus aureus PCM 2054, Staphylococcus epidermidis PCM 521, Staphylococcus epidermidis PCM 2118, Escherichia coli PCM 2057, Candida albicans PCM 2566, Candida glabrata CCM 8270, Candida krusei CCM 8271, Candida parapsilosis CCM 8260.
(§2) For the initial cultivation of the bacteria and fungi, Luria-Bertani broth (LB, Biomaxima, Lublin, Poland) and Sabouraud Dextrose broth (SB, Biomaxima, Lublin, Poland) were used, respectively. Antimicrobial properties of the compounds were analyzed through the determination of MIC (minimal inhibitory concentrations) by my means of the serial micro-dilution technique according to the guidelines of Clinical & Laboratory Standard Institute (CLSI) established for aerobic bacteria and yeasts.
(§3) According to the procedures, Mueller–Hinton broth (MHB) was used as the working medium for the analysis of the bacterial susceptibility, while RPMI-1640 (with L-glutamine, without sodium bicarbonate) growth medium buffered with MOPS (morpholinepropanesulfonic acid) and supplemented with 2% glucose was used for the experiments with the fungi.
(§4) The experiments were carried out for 24 h at 37 and 35 °C for the bacteria and fungi, respectively. Then, the absorbance was measured at 600 nm for each well of the 96-well plate using a microplate reader (Sunrise TM, Tecan Trading AG, Männedorf, Switzerland). Based on the obtained results, the degree of inhibition of the growth of microorganisms (expressed in %) in the presence of the tested compounds range was determined with respect to the control probes. Inoculated wells without peptide were treated as a positive control (100% growth), and the wells containing working medium only were defined as a negative control (0% growth). All measurements were repeated in triplicate.

fungi Candida spps = experiment: MIC, antifungal activity; format: cell-based; details: text summary of Table 1, Candida strains
Procedure: as §1
as §2, with “yeasts. […]” for “yeasts.”
as §4, with “Inoculated wells without peptide were treated as a positive control (100% growth), and the wells containing working medium only were defined as a negative control (0% growth). All measurements were repeated in triplicate.” left out

C. parapsilosis CCM 8260 = format: cell-based, Candida parapsilosis; details: RPMI-1640 with MOPS and 2% glucose, inoculum 5 × 10^3 CFU/mL, 24 h, 35 °C, absorbance 600 nm, triplicate
Procedure: as §1, §2, §3, §4

S. epidermidis PCM521 = format: cell-based, Staphylococcus epidermidis; details: Mueller–Hinton broth, inoculum 5 × 10^5 CFU/mL, 24 h, 37 °C, absorbance 600 nm, triplicate
Procedure: as §1, §2, §3, §4

S. epidermidis PCM2118 = format: cell-based, Staphylococcus epidermidis; details: Mueller–Hinton broth, inoculum 5 × 10^5 CFU/mL, 24 h, 37 °C, absorbance 600 nm, triplicate
Procedure: as §1, §2, §3, §4

S. aureus PCM2054 = format: cell-based, Staphylococcus aureus; details: Mueller–Hinton broth, inoculum 5 × 10^5 CFU/mL, 24 h, 37 °C, absorbance 600 nm, triplicate
Procedure: as §1, §2, §3, §4

C. albicans PCM2566 = format: cell-based, Candida albicans; details: RPMI-1640 with MOPS and 2% glucose, inoculum 5 × 10^3 CFU/mL, 24 h, 35 °C, absorbance 600 nm, triplicate
Procedure: as §1, §2, §3, §4

C. krusei CCM8271 = format: cell-based, Candida krusei; details: RPMI-1640 with MOPS and 2% glucose, inoculum 5 × 10^3 CFU/mL, 24 h, 35 °C, absorbance 600 nm, triplicate
Procedure: as §1, §2, §3, §4

C. glabrata CCM8270 = format: cell-based, Candida glabrata; details: RPMI-1640 with MOPS and 2% glucose, inoculum 5 × 10^3 CFU/mL, 24 h, 35 °C, absorbance 600 nm, triplicate
Procedure: as §1, §2, §3, §4

[1] = Dynamic light scattering of lipopeptide assemblies; format: physicochemical; details: DLS, sonicated 10 min, incubated 1 h, 90° side scatter
Procedure: The hydrodynamic diameters of the lipopeptide nanoaggregates were examined by the Litesizer 500 (Anton-Paar GmbH, Graz, Austria) at 25 °C. The measurements were carried out at various lipopeptide concentrations ranging from 0.5 to 2 mM and from 0.25 to 2 mM, in water and PBS, respectively. Two-fold serial dilutions were used to obtain the sequential concentrations. Each sample was sonicated for 10 min followed by incubation for 1 h at 25 °C and transferred to the polystyrene cuvette. The detector was positioned at a side scatter position (90°). The analysis of the obtained results and report generation was performed with KalliopeTM software (Anton-Paar GmbH, Graz, Austria).

POPG liposomes = experiment: CD, α-helix content in POPG liposomes; format: physicochemical; details: 25 °C, peptide 0.15 mg/mL, 1.3 mM POPG, from ellipticity at 222 nm
Procedure: (§5) Large unilamellar vesicles (LUV) were obtained by extrusion of MLV liposomes through polycarbonate membrane filters with a pore diameter of 100 nm (Whatman International Ltd., Kent, UK) using a mini-extruder (Avanti Polar Lipids, Inc., Alabaster, AL, USA).
(§6) CD experiments were carried out at 25 °C using a Jasco J-815 spectropolarimeter in the wavelength range 185–260 nm. The concentration of the lipopeptides was 0.15 mg/mL. The CD spectra were recorded in water, PBS (pH 7.4), 1.3 mM POPC and 1.3 mM POPG. The results are plotted as the mean molar ellipticity per one amino acid residue (MRME, deg cm^2 dmol^−1) as a function of the wavelength (nm). Additionally, we performed a conformational analysis of the selected compounds in the presence of S. aureus cells. […] The mixtures were then incubated for 2 h before recording the CD spectra.
(§7) The percentage of the α-helical structure was calculated based on the mean molar ellipticity at 222 nm using the formula: fH=θ222−3000/−36000−3000·100% where θ222 corresponds to the value of the mean molar ellipticity at a wavelength of 222 nm.

POPC liposomes = experiment: CD, α-helix content in POPC liposomes; format: physicochemical; details: 25 °C, peptide 0.15 mg/mL, 1.3 mM POPC
Procedure: as §5, §6, §7

[2] = tested on: human prostate cancer cells (PC3 line, ATCC); experiment: MTT cytotoxicity assay; format: cell-based; details: IC50 against HaCaT divided by IC50 for PC3
Procedure: (§8) The prepared plates were further incubated for 48 h. […] The control cell viability was assumed to be 100%. Three independent experiments were carried out in three repetitions.

[3] = tested on: human breast cancer cells (MCF-7 line, ATCC); experiment: MTT cytotoxicity assay; format: cell-based; details: IC50 against HaCaT divided by IC50 for MCF-7
Procedure: as §8

POPG LUVs = experiment: Isothermal titration calorimetry, binding to POPG LUVs; details: ITC, 25 °C, 0.05 or 0.07 mM peptide titrated with 1.3 or 1.8 mM POPG LUVs; one set of sites model (C10-LL-I: two sets of sites, first line)
Procedure: as §5
The thermodynamic parameters of the interactions of the lipopeptides with POPG and POPC liposomes were determined by isothermal titration calorimetry (ITC). Measurements were performed at 25 °C using an AutoITC microcalorimeter (MicroCal Inc., Northampton, MA, USA) with a 1.4491 mL sample and reference cells. The experiment consisted in the titration of a buffered peptide solution with a concentration of 0.05 and/or 0.07 mM with a buffered solution containing POPG or POPC LUVs with a lipid concentration of 1.3 and 1.8 mM (10.02 µL; 29 injections, 2 µL for the first injection only), as it was described previously. The result of the titration was a thermogram showing a series of peaks corresponding to the titration steps. A titration curve was obtained after integration of the peak areas. The obtained isotherms were fitted to the “one set of sites” or “two sets of sites” models available in the ORIGIN 7.0 (MicroCal Inc., Northampton, MA, USA), which made it possible to determine the enthalpy (ΔH), the binding constant (KITC) and the stoichiometry (N) of the interactions between the lipopeptide and the lipids. The following formula was used to calculate the entropy change (ΔS) and the Gibbs free energy (ΔG): ΔG=−RTln(55.5KITC)=ΔH−TΔS where: factor 55.5 is the molar concentration of water, R is the gas constant (1.986 cal·mol^−1·K^−1), and T is the absolute temperature.

Row | SMILES | MIC, E. coli PCM2057 (E. coli PCM2057) [µg/mL] | MIC, antifungal activity (fungi Candida spps) [µg/mL] | MIC, C. parapsilosis CCM 8260 (C. parapsilosis CCM 8260) [µg/mL] | MIC, S. epidermidis PCM521 (S. epidermidis PCM521) [µg/mL] | MIC, S. epidermidis PCM2118 (S. epidermidis PCM2118) [µg/mL] | MIC, S. aureus PCM2054 (S. aureus PCM2054) [µg/mL] | MIC, C. albicans PCM2566 (C. albicans PCM2566) [µg/mL] | MIC, C. krusei CCM8271 (C. krusei CCM8271) [µg/mL] | MIC, C. glabrata CCM8270 (C. glabrata CCM8270) [µg/mL] | hydrodynamic diameter, peak of highest scattering intensity ([1]; 0.25 mM in PBS pH 7.4, 25 °C) [nm] | hydrodynamic diameter, peak of highest scattering intensity ([1]; 0.5 mM salt-free aqueous solution, 25 °C) [nm] | hydrodynamic diameter ([1]; 2 mM in PBS pH 7.4, 25 °C) [nm] | α-Helix percentage, POPG (POPG liposomes) [%] | θ222/θ208, POPC (POPC liposomes) | α-Helix percentage, POPC (POPC liposomes; from ellipticity at 222 nm) [%] | SI PC3 [2] | SI MCF-7 [3] | pKITC, POPG (POPG LUVs)
1 | CCCCCCCCCCCCCCCC(=O)N[C@@H](CCCCN)C(=O)N[C@@H](CCCNC(=N)N)C(=O)N[C@@H](Cc1ccccc1)C(=O)N[C@@H](CCCCN)C(=O)N[C@@H](CCCCN)C(=O)N[C@@H](Cc1ccccc1)C(=O)N[C@@H](Cc1ccccc1)C(=O)N[C@@H](CCCCN)C(=O)N[C@@H](CCCCN)C(=O)N[C@@H](CC(C)C)C(=O)N[C@@H](CCCCN)C(N)=O [C16-ATRA-1] (Palmitoyl-KRFKKFFKKLK-NH2) | >50 | ≤ 3.13 | 3.13 (≈ 1.8 µM) | 25 (≈ 14.4 µM) | 12.5 (≈ 7.2 µM) | >50 | 2.5 (≈ 1.44 µM) | 2.5 (≈ 1.44 µM) | 3.13 (≈ 1.8 µM) | – | – | – | – | – | – | – | – | –
2 | CCCCCCCCCC(=O)N[C@@H](CCCCN)C(=O)N[C@@H](CCCNC(=N)N)C(=O)N[C@@H](Cc1ccccc1)C(=O)N[C@@H](CCCCN)C(=O)N[C@@H](CCCCN)C(=O)N[C@@H](Cc1ccccc1)C(=O)N[C@@H](Cc1ccccc1)C(=O)N[C@@H](CCCCN)C(=O)N[C@@H](CCCCN)C(=O)N[C@@H](CC(C)C)C(=O)N[C@@H](CCCCN)C(N)=O [C10-ATRA-1] (Decanoyl-KRFKKFFKKLK-NH2) | 31.25 (≈ 18.9 µM) | – | 25 (≈ 15.1 µM) | 3.13 (≈ 1.9 µM) | 3.13 (≈ 1.9 µM) | 3.9 (≈ 2.36 µM) | 50 (≈ 30.3 µM) | 12.5 (≈ 7.57 µM) | >50 | 2808 ± 1193 | 284 ± 105 | 1040 ± 343 | 17 | 0.65 | 14 | 3.92 | 9.47 | 7.06 ± 0.61
